Key:
[1] = system: SHSY5Y overexpressing A53T eGFP; assay: Amount of aggregated α-syn in differentiated cells overexpressing A53T eGFP, confocal microscopy; type: cell-based; conditions: for amount of α-syn aggregated in the cells: Src KD SHSY5Y overexpressing A53T eGFP, 50 μM retinoid acid, differentiated 5 days
SHSY5Y cell line = assay: α-syn intercellular migration, two-chamber co-culture, immunostaining and confocal microscopy; type: cell-based; conditions: 0.1 μM saracatinib, 10 μM SKI; co-culture 12 hours with SHSY5Y overexpressing α-syn; vs PBS control
Procedure: The SHSY5Y cell overexpressing alpha-synuclein was seeded at 4×10^4 in a 12-well plate in an insert well using a two-chamber system, and the SHSY5Y cell line was seeded at 4×10^4 on the cover glass. The next day, the insert well was transferred to a 12-well cover glass, and during co-culture for 12 hours, the SHSY5Y cell line was treated with 0.1 μM saracatinib and 10 μM SKI (c-src kinase inhibitor I), which are c-src inhibitors, and then alpha-synuclein in SHSY5Y cell line on the cover glass was immunostained (α-syn: red, nucleus: blue) and observed using a confocal microscope to confirm that alpha-synuclein was migrated from SHSY5Y overexpressing alpha-synuclein to SHSY5Y not overexpressing alpha-synuclein.
Next, c-src knockdown SHSY5Y cell lines (KD #1 and KD #2), constructed using shRNAs of […], and dopaminergic neuronal cell line SHSY5Y overexpressing α-syn were co-cultured for 12 hours using a two-chamber system. The co-culture will be described in brief. SHSY5Y cells were seeded at a concentration of 4×10^4 cells/well on a 12-well cover glass. […]

Molecule	amount of aggregated α-syn ([1]; 10 μM SKI, 0.5 μM saracatinib, differentiated with 50 μM RA)	migration of α-syn (SHSY5Y cell line)	amount of α-syn aggregated in the cells [1]
COc1cc2ncnc(Nc3ccc(Oc4ccccc4)cc3)c2cc1OC [SKI]	decreased	reduced	–
SEQ ID NO: 2: shRNA against c-src: CCGGGACAGACCUGUCCUUCAAGAACUCGAGUUCUUGAAGGACAGGUCUGUCUUUUUG (listed as RNA, chemistry not fully specified)	–	–	decreased
SEQ ID NO: 1: shRNA against c-src: CCGGGCUCGGCUCAUUGAAGACAAUCUCGAGAUUGUCUUCAAUGAGCCGAGCUUUUUG	–	–	decreased

Source: patent publication US12240892B2, “Pharmaceutical composition comprising expression or activity inhibitor of c-src for preventing or treating synucleinopathy” (AJOU UNIVERSITY INDUSTRY-ACADEMIC COOPERATION FOUNDATION, priority 2018, dated 2025)
